Data published in US20160030415A1, “TREATMENT AND PROPHYLAXIS OF KIDNEY DISEASES” (priority 2013, published 2016).

How the values were obtained:
[1] = tested on: Streptozocin (STZ) induced diabetic rats; assay: Study 1: HCQ and its combination with Losartan in renal damage, comparison with diabetic control; assay type: in vivo, Wistar rats; details: after 8 weeks oral once daily, Losartan 5.5 mg/kg, Hydroxychloroquine 22.5 mg/kg
Description: The Efficacy of the drugs was tested in two different models, one involving comparison with diabetic control (i.e. Diabetic Rats not treated with any medication) and the other involving comparison with the anti-diabetic control group (i.e. Diabetic rats administered Glimepiride) in two separate studies. 25 male Wistar rats weighing 150-250 g were divided randomly into 5 groups consisting of 5 animals each. Diabetes was induced in rats by single administration of streptozotocin (55 mg/kg/i.p) dissolved in 0.1 M-citrate buffer, pH 4.5. Group 1 (normal control) consisted of normal rats that neither received Streptozotocin (STZ) nor any test drug; Group 2 served as streptozotocin induced diabetic control. Group 3 was diabetic rats treated with Losartan (LT) (5.5 mg/kg); Group 4 was diabetic rats treated with Hydroxychloroquine (HCQ) (22.5 mg/kg), Group 5 was diabetic rats treated with combination of HCQ (22.5 mg/kg) and LT (5.5 mg/kg). The study drugs were dissolved/suspended in distilled water and administered orally once a day for eight weeks. Blood glucose levels and renal oxidative stress parameters including TBARS, GSH and total Protein in Kidney Homogenate were assessed after the completion of eighth week of the study.

[2] = tested on: STZ induced diabetic nephropathy in rats; assay: Study 4: HCQ and its combination with Losartan, Telmisartan, Azilsartan and Ramipril, with Glimepiride control; assay type: in vivo, Wistar rats; details: for HDL / TC / TG / GSH / TBARS / Total protein kidney / Creatinine / Total protein / Urea: after 8th week; for Glucose Day1 / Glucose Day14 / Glucose Day28 / Glucose Day42 / Glucose Day56: blood; for GSH / TBARS / Total protein kidney: kidney homogenate; for Creatinine / Total protein / Urea: serum
[3] = dose mg/kg: HCQ 35, LT 5.5, RM 0.3, TL 4.5, AZ 2.5, alone or combined with HCQ 35
[4] = dose mg/kg: HCQ 45, LT 11, RM 0.6, TL 9.5, AZ 4.5, alone or combined with HCQ 45

Compound: CCCCc1nc(Cl)c(CO)n1Cc1ccc(-c2ccccc2-c2nn[nH]n2)cc1 [Losartan]
- Blood glucose level (% Control) [1]: (98.57) % Control
- Blood glucose level Mean ± SEM [1]: 582.1 ± 00^ mg/dl
- Total Protein in Kidney Homogenate (% Naive) [1]: (204.95) % Naive
- Total Protein in Kidney Homogenate Mean ± SEM [1]: 1180.00 µg/mL
- GSH (% Naive) ([1]; kidney homogenate): (41.92) % Naive
- GSH Mean ± SEM ([1]; kidney homogenate): 0.827 nM/mg
- TBARS (% Naive) ([1]; kidney homogenate): (186.61) % Naive
- TBARS Mean ± SEM ([1]; kidney homogenate): 0.808 nM/mg
- HDL [2, 3]: 27.5 ± 1.64 mg/dL
- TC [2, 3]: 143.5 ± 3.39 mg/dL
- TG [2, 3]: 100 ± 5.4 mg/dL
- HDL [2, 4]: 28.5 ± 2.88 mg/dL
- TC [2, 4]: 139.83 ± 3.19 mg/dL
- TG [2, 4]: 98.83 ± 3.66 mg/dL
- Glucose Day1 [2, 3]: 262.5 ± 25.35 mg/dL
- Glucose Day1 [2, 4]: 268.67 ± 15.63 mg/dL
- Glucose Day14 [2, 3]: 211.17 ± 21.48 mg/dL
- Glucose Day14 [2, 4]: 215.67 ± 18.13 mg/dL
- Glucose Day28 [2, 3]: 179.33 ± 7.84 mg/dL
- Glucose Day28 [2, 4]: 178 ± 7.92 mg/dL
- Glucose Day42 [2, 3]: 161.17 ± 4.71 mg/dL
- Glucose Day42 [2, 4]: 152.17 ± 7.28 mg/dL
- Glucose Day56 [2, 3]: 146.33 ± 6.65 mg/dL
- Glucose Day56 [2, 4]: 139 ± 10.92 mg/dL
- GSH [2, 3]: 0.56 ± 0.23 nM/mg
- TBARS [2, 3]: 0.74 ± 0.1 nM/mg
- Total protein kidney [2, 3]: 893.33 ± 29.92 µg/mL
- GSH [2, 4]: 0.66 ± 0.23 nM/mg
- TBARS [2, 4]: 0.63 ± 0.17 nM/mg
- Total protein kidney [2, 4]: 829.67 ± 25.45 µg/mL
- Creatinine [2, 3]: 3.36 ± 0.32 mg/dL
- Total protein [2, 3]: 4.91 ± 0.2 g/dL
- Urea [2, 3]: 39.83 ± 1.72 mg/dL
- Creatinine [2, 4]: 3.26 ± 0.38 mg/dL
- Total protein [2, 4]: 5.32 ± 0.2 g/dL
- Urea [2, 4]: 41 ± 2.53 mg/dL
